# Target: T1, AKT1 (Homo sapiens, UniProt P31749)
# T1 construct: purchased Upstate 14-276
# Test: HTS ATP-utilizing enzyme assay, off-chip mobility-shift (Caliper HTS 250)
# Format: biochemical
# Conditions: kinase named = inhibitory activity/selectivity; test compound 10 μM; active = greater than three-sigma from mean
# Description: The following procedures describe the reagent and plate preparation for a HTS of an ATP-utilizing enzyme, such as a protein kinase, run in an off-chip mobility-shift assay format. The following provides an HTS protocol for running a protein kinase HTS screen on a Caliper HTS 250 microfluidics system. The following parameters are dependent on the protein kinase used and can be determined by one skilled in the art as part of a typical assay development process. For example, the peptide substrate used can be identified from the current literature, by screening a peptide library of potential protein kinase substrates, or by other applicable means accepted in the field.
# The following table provides typical screen assay parameters appropriate for a Caliper HTS 250 microfluidics system used to assay AKT1. Parameters used to assay other protein kinases can be determined by one skilled in the art.
# Assays to determine the kinase inhibitory activity of chemical entities of the present disclosure were performed using a Caliper HTS 250 microfluidics device, Greiner U-bottom assay plates, a Multidrop for transfer of reagents, and Biomek FX (AMNCBM03) software. Initially, 2.4 μL of a 1 mM solution of a test compound in 100% DMSO was added to a well of the Greiner U-bottom plate. A single Greiner U-bottom plate having 24×16 wells could include multiple test compounds. […] Using the Biomek FX, 10 μL of 0.5 M EDTA was added by the span-8 to wells, indicated as 100% Control and 2.4 μL of 100% DMSO was added by the span-8 to wells, indicated as 0% Control. […] The total reaction volume in each well was 25 μL, and the concentration of the test compound was 10 μM. The assay plate was incubated for 2.5 hrs at 20° C. to 22° C. […] The inhibition of the ATP-utilizing enzyme, such as a particular protein kinase, was determined by measuring the ratio of the peptide substrate to phosphorylated product for each well of the assay plate using the Caliper HTS 250 system.
# The use of three-sigma statistical limits represents a conservative method for declaring potential hits among targets. The three-sigma activity, as well as the mean population activity, can be different for each target enzyme.
# Each chemical entity listed in Table 2 was tested for protein kinase inhibitory activity according to the biological assays and definitions of protein kinase inhibitory activity as described herein.
# T1 sequence (P31749 whole entry): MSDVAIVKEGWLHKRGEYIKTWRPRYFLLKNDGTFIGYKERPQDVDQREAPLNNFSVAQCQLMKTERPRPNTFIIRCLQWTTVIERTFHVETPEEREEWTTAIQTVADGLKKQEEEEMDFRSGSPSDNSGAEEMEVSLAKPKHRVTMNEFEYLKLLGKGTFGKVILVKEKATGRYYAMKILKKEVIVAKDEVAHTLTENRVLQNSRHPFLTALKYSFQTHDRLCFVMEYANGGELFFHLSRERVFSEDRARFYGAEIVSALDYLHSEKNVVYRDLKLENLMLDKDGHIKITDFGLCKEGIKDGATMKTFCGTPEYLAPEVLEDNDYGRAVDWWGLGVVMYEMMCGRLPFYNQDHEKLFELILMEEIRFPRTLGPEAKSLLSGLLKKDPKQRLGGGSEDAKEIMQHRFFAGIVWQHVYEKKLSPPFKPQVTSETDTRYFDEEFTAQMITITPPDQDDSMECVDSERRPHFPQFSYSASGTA
row,Activity,SMILES
1,AKT1,O=C(NCCO)C1CCCN(C(=O)CCN(C(=O)c2cccs2)c2nc(-c3cc4ccccc4o3)cs2)C1 (stereo not drawn) [1-(3-(N-(4-(benzofuran-2-yl)thiazol-2-yl)thiophene-2-carboxamido)propanoyl)-N-(2-hydroxyethyl)piperidine-3-carboxamide]
2,AKT1,NC(=O)C1CCCCN1C(=O)CCN(C(=O)c1cccs1)c1nc(-c2cc3ccccc3o2)cs1 (stereo not drawn) [1-(3-(N-(4-(benzofuran-2-yl)thiazol-2-yl)thiophene-2-carboxamido)propanoyl)piperidine-2-carboxamide]
3,AKT1,NC(=O)C1CCCN(C(=O)CCN(C(=O)c2cccs2)c2nc(-c3cc4ccccc4o3)cs2)C1 (stereo not drawn) [1-(3-(N-(4-(benzofuran-2-yl)thiazol-2-yl)thiophene-2-carboxamido)propanoyl)piperidine-3-carboxamide]
4,AKT1,O=C(O)C1CCCN(C(=O)CCN(C(=O)c2cccs2)c2nc(-c3cc4ccccc4o3)cs2)C1 (stereo not drawn) [1-(3-(N-(4-(benzofuran-2-yl)thiazol-2-yl)thiophene-2-carboxamido)propanoyl)piperidine-3-carboxylic acid]
5,AKT1,NC(=O)C1CCCN1C(=O)CCN(C(=O)c1cccs1)c1nc(-c2cc3ccccc3o2)cs1 (stereo not drawn) [1-(3-(N-(4-(benzofuran-2-yl)thiazol-2-yl)thiophene-2-carboxamido)propanoyl)pyrrolidine-2-carboxamide]
6,AKT1,"CCN(CC)C(=O)C1CCCN(CCCN(C(=O)c2cccs2)c2nc(-c3cc4ccccc4o3)cs2)C1 (stereo not drawn) [1-(3-(N-(4-(benzofuran-2-yl)thiazol-2-yl)thiophene-2-carboxamido)propyl)-N,N-diethylpiperidine-3-carboxamide]"
7,AKT1,CNC(=O)C1CCN(CCCN(C(=O)c2cccs2)c2nc(-c3cc4ccccc4o3)cs2)CC1 [1-(3-(N-(4-(benzofuran-2-yl)thiazol-2-yl)thiophene-2-carboxamido)propyl)-N-methylpiperidine-4-carboxamide]
8,AKT1,NC(=O)C1CCCCN1CCCN(C(=O)c1cccs1)c1nc(-c2cc3ccccc3o2)cs1 (stereo not drawn) [1-(3-(N-(4-(benzofuran-2-yl)thiazol-2-yl)thiophene-2-carboxamido)propyl)piperidine-2-carboxamide]
9,AKT1,NC(=O)C1CCCN(CCCN(C(=O)c2cccs2)c2nc(-c3cc4ccccc4o3)cs2)C1 (stereo not drawn) [1-(3-(N-(4-(benzofuran-2-yl)thiazol-2-yl)thiophene-2-carboxamido)propyl)piperidine-3-carboxamide]
10,AKT1,NC(=O)C1CCN(CCCN(C(=O)c2cccs2)c2nc(-c3cc4ccccc4o3)cs2)CC1 [1-(3-(N-(4-(benzofuran-2-yl)thiazol-2-yl)thiophene-2-carboxamido)propyl)piperidine-4-carboxamide]
11,AKT1,NC(=O)C1CCCN1CCCN(C(=O)c1cccs1)c1nc(-c2cc3ccccc3o2)cs1 (stereo not drawn) [1-(3-(N-(4-(benzofuran-2-yl)thiazol-2-yl)thiophene-2-carboxamido)propyl)pyrrolidine-2-carboxamide]
12,AKT1,O=C(NCCO)C1CCN(C(=O)CCCN(C(=O)c2cccs2)c2nc(-c3cc4ccccc4o3)cs2)CC1 [1-(4-(N-(4-(benzofuran-2-yl)thiazol-2-yl)thiophene-2-carboxamido)butanoyl)-N-(2-hydroxyethyl)piperidine-4-carboxamide]
13,AKT1,CNC(=O)C1CCN(C(=O)CCCN(C(=O)c2cccs2)c2nc(-c3cc4ccccc4o3)cs2)CC1 [1-(4-(N-(4-(benzofuran-2-yl)thiazol-2-yl)thiophene-2-carboxamido)butanoyl)-N-methylpiperidine-4-carboxamide]
14,AKT1,NC(=O)C1CCCN(C(=O)CCCN(C(=O)c2cccs2)c2nc(-c3cc4ccccc4o3)cs2)C1 (stereo not drawn) [1-(4-(N-(4-(benzofuran-2-yl)thiazol-2-yl)thiophene-2-carboxamido)butanoyl)piperidine-3-carboxamide]
15,AKT1,NC(=O)C1CCN(C(=O)CCCN(C(=O)c2cccs2)c2nc(-c3cc4ccccc4o3)cs2)CC1 [1-(4-(N-(4-(benzofuran-2-yl)thiazol-2-yl)thiophene-2-carboxamido)butanoyl)piperidine-4-carboxamide]
16,AKT1,NC(=O)C1CCCN1C(=O)CCCN(C(=O)c1cccs1)c1nc(-c2cc3ccccc3o2)cs1 (stereo not drawn) [1-(4-(N-(4-(benzofuran-2-yl)thiazol-2-yl)thiophene-2-carboxamido)butanoyl)pyrrolidine-2-carboxamide]
17,AKT1,CC(=O)N1CCC(C(=O)NCCCN(C(=O)c2cccs2)c2nc(-c3cc4ccccc4o3)cs2)CC1 [1-acetyl-N-(3-(N-(4-(benzofuran-2-yl)thiazol-2-yl)thiophene-2-carboxamido)propyl)piperidine-4-carboxamide]

row,Activity,SMILES
1,AKT1,Cn1cccc1C(=O)N(CCCN1CCCC1=O)c1nc(-c2cc(-c3ccccc3)no2)cs1 [1-methyl-N-(3-(2-oxopyrrolidin-1-yl)propyl)-N-(4-(3-phenylisoxazol-5-yl)thiazol-2-yl)-1H-pyrrole-2-carboxamide]
2,AKT1,Cn1cccc1C(=O)N(CCCN1CCOCC1)c1nc(-c2cc(-c3ccccc3)no2)cs1 [1-methyl-N-(3-morpholinopropyl)-N-(4-(3-phenylisoxazol-5-yl)thiazol-2-yl)-1H-pyrrole-2-carboxamide]
3,AKT1,O=C(O)COc1cccc(-c2csc(N(CCCN3CCOCC3)C(=O)c3cccs3)n2)c1 [2-(3-(2-(N-(3-morpholinopropyl)thiophene-2-carboxamido)thiazol-4-yl)phenoxy)acetic acid]
4,AKT1,O=C(O)CNC(=O)c1ccc(-c2csc(N(CCCN3CCOCC3)C(=O)c3cccs3)n2)cc1 [2-(4-(2-(N-(3-morpholinopropyl)thiophene-2-carboxamido)thiazol-4-yl)benzamido)acetic acid]
5,AKT1,O=C(O)COc1ccc(-c2csc(N(CCCN3CCOCC3)C(=O)c3cccs3)n2)cc1 [2-(4-(2-(N-(3-morpholinopropyl)thiophene-2-carboxamido)thiazol-4-yl)phenoxy)acetic acid]
6,AKT1,O=C(O)Cc1ccc(-c2csc(N(CCCN3CCOCC3)C(=O)c3cccs3)n2)s1 [2-(5-(2-(N-(3-morpholinopropyl)thiophene-2-carboxamido)thiazol-4-yl)thiophen-2-yl)acetic acid]
7,AKT1,"O=C(Nc1nncs1)c1csc(N(CCCN2CCOCC2)C(=O)c2cccs2)n1 [2-(N-(3-morpholinopropyl)thiophene-2-carboxamido)-N-(1,3,4-thiadiazol-2-yl)thiazole-4-carboxamide]"
8,AKT1,O=C(Nc1nccs1)c1csc(N(CCCN2CCOCC2)C(=O)c2cccs2)n1 [2-(N-(3-morpholinopropyl)thiophene-2-carboxamido)-N-(thiazol-2-yl)thiazole-4-carboxamide]
9,AKT1,COc1ccc(-c2csc(N(CCCN3CCOCC3)C(=O)c3ccccc3F)n2)cc1 [2-fluoro-N-(4-(4-methoxyphenyl)thiazol-2-yl)-N-(3-morpholinopropyl)benzamide]
10,AKT1,O=C(O)c1cccc(-c2csc(N(CCCN3CCOCC3)C(=O)c3cccs3)n2)c1 [3-(2-(N-(3-morpholinopropyl)thiophene-2-carboxamido)thiazol-4-yl)benzoic acid]
11,AKT1,O=C(O)CCOc1cccc(-c2csc(N(CCCN3CCOCC3)C(=O)c3cccs3)n2)c1 [3-(3-(2-(N-(3-morpholinopropyl)thiophene-2-carboxamido)thiazol-4-yl)phenoxy)propanoic acid]
12,AKT1,O=C(O)CCOc1ccc(-c2csc(N(CCCN3CCOCC3)C(=O)c3cccs3)n2)cc1 [3-(4-(2-(N-(3-morpholinopropyl)thiophene-2-carboxamido)thiazol-4-yl)phenoxy)propanoic acid]
13,AKT1,COc1ccc(-c2csc(N(CCCN3CCOCC3)C(=O)c3cccc(F)c3)n2)cc1 [3-fluoro-N-(4-(4-methoxyphenyl)thiazol-2-yl)-N-(3-morpholinopropyl)benzamide]
14,AKT1,Cc1cccc(C(=O)N(CCCN2CCOCC2)c2nc(-c3ccccc3)cs2)c1 [3-methyl-N-(3-morpholinopropyl)-N-(4-phenylthiazol-2-yl)benzamide]
15,AKT1,O=C(O)c1ccc(-c2csc(N(CCCN3CCOCC3)C(=O)c3cccs3)n2)cc1 [4-(2-(N-(3-morpholinopropyl)thiophene-2-carboxamido)thiazol-4-yl)benzoic acid]
16,AKT1,COc1ccc(-c2csc(N(CCCN3CCOCC3)C(=O)c3ccc(Cl)cc3)n2)cc1 [4-chloro-N-(4-(4-methoxyphenyl)thiazol-2-yl)-N-(3-morpholinopropyl)benzamide]
